One assay has as its system keratinocytes. Particulars: Nack-in-Kim et al., J.Invest.Dermatol. 1993; cited from earlier work.
For another assay, the system named is fibrocytes. Particulars: Tanaka H. et al., 1991; cited from earlier work.
Assay [1] has as its system normal human fibroblasts (NHF-50 years). The assay is described as follows: Elastin secreted by normal human skin fibroblasts, ELISA on culture supernatants (NHF-50 years). It is filed as cell-based. The source says: The cells had been obtained by the method of explants as described by M. Dumas et al. in the article entitled “in vitro biosynthesis of type I and III collagens by human dermal fibroblasts from donors of increasing ages” in Mech. Ageing Dev. 73 (1994), pages 179-187. These normal human skin fibroblasts thus obtained are sown in the wells of a multi-well culture box, in an E 199 culture medium, in which 2 millimoles per liter of L-glutamine have been added. Further, for a certain number of tests, the culture medium contains sodium ascorbate at concentrations of 15 or 25 micromoles per liter. 24 hours after sowing, certain wells receive ginsenoside Rb1 or an extract of Panax 1 to 10 μg/ml via a solution in DMSO so that the final DMSO concentration be 0.1%. […] These control cultures only receive DMSO at a final concentration of 0.1% by weight. The culture is continued for 48 h. After 48 h of culture as indicated above, the elastin secreted is determined on the supernatants of the culture, by an ELISA method derived from that used for the determination of collagen, as described by M. Dumas et al in the publication cited above, except that a commercial human anti-elastin polyclonal antibody was used instead of the human anti-collagen I and III polyclonal antibodies. A standard range made from commercial soluble elastin enables converting into nanograms of elastin the values of optical density (OD) obtained from the culture supernatants. In parallel with the determination of the elastin, a determination of the cell proteins is carried out on the cultures of fibroblasts, after removal of the supernatant, in order to bring the amount of elastin determined to a fixed amount of cell proteins. The determination is carried out by using a BCA-1 kit (Bicinchoninic acid kit, marketed by Sigma, France) after dissolution of the cell plug with 0.1 N sodium hydroxide solution. The results are expressed in nanograms of elastin secreted per microgram of cellular proteins. The activity A of stimulation, expressed in percentage, is calculated according to the following formula: [formula] […]

The subject of assay [2] is normal human fibroblasts (NHF-47 years). The assay is described as follows: Elastin secreted by normal human skin fibroblasts, ELISA on culture supernatants (NHF-47 years). The assay is classed as cell-based. Particulars: for Activity in % (stimulation of elastin secretion vs control): 48 h; for ng Elastin/μg prot/48 h: n=6. From the text:
The cells had been obtained by the method of explants as described by M. Dumas et al. in the article entitled “in vitro biosynthesis of type I and III collagens by human dermal fibroblasts from donors of increasing ages” in Mech. Ageing Dev. 73 (1994), pages 179-187. These normal human skin fibroblasts thus obtained are sown in the wells of a multi-well culture box, in an E 199 culture medium, in which 2 millimoles per liter of L-glutamine have been added. Further, for a certain number of tests, the culture medium contains sodium ascorbate at concentrations of 15 or 25 micromoles per liter. 24 hours after sowing, certain wells receive ginsenoside Rb1 or an extract of Panax 1 to 10 μg/ml via a solution in DMSO so that the final DMSO concentration be 0.1%. […] These control cultures only receive DMSO at a final concentration of 0.1% by weight. The culture is continued for 48 h. After 48 h of culture as indicated above, the elastin secreted is determined on the supernatants of the culture, by an ELISA method derived from that used for the determination of collagen, as described by M. Dumas et al in the publication cited above, except that a commercial human anti-elastin polyclonal antibody was used instead of the human anti-collagen I and III polyclonal antibodies. A standard range made from commercial soluble elastin enables converting into nanograms of elastin the values of optical density (OD) obtained from the culture supernatants. In parallel with the determination of the elastin, a determination of the cell proteins is carried out on the cultures of fibroblasts, after removal of the supernatant, in order to bring the amount of elastin determined to a fixed amount of cell proteins. The determination is carried out by using a BCA-1 kit (Bicinchoninic acid kit, marketed by Sigma, France) after dissolution of the cell plug with 0.1 N sodium hydroxide solution. The results are expressed in nanograms of elastin secreted per microgram of cellular proteins. The activity A of stimulation, expressed in percentage, is calculated according to the following formula: [formula] The results obtained on the treated cultures (n=6) and controls (n=6) are compared with the aid of the Student t test for non-paired series. Any value of p<0.05 will indicate that a significant difference exists between the secretion of elastin of the control NHFs and those treated with the products of the invention.
On the technique in general: In an ELISA, binding on a coated surface is turned into a signal by an enzyme label.

Where [3] appears, read: product 10 μg/ml, no ascorbate, DMSO 0.1%.

Where “and” joins values, the source holds several entries; their conditions need not be identical. Equal values may be shown once.

As for ginsenoside, the “action on the proliferation of the keratinocytes” value with keratinocytes is “inhibitory action”.

For `CC(C)=CCC[C@](C)(O[C@@H]1O[C@H](CO[C@@H]2OC[C@H](O)[C@H](O)[C@H]2O)[C@@H](O)[C@H](O)[C@H]1O)[C@H]1CC[C@]2(C)[C@@H]1[C@H](O)C[C@@H]1[C@@]3(C)CC[C@H](O[C@@H]4O[C@H](CO)[C@@H](O)[C@H](O)[C@H]4O[C@@H]4O[C@H](CO)[C@@H](O)[C@H](O)[C@H]4O)C(C)(C)[C@@H]3CC[C@]12C` [ginsenoside Rb2], the “synthesis of glycosaminoglycans (GAG) by the fibrocytes” value in the assay on fibrocytes is given as “effective to stimulate the synthesis of glycosaminoglycans (GAG)”.

Turning to `CC(C)=CCC[C@](C)(O[C@@H]1O[C@H](CO[C@@H]2O[C@H](CO)[C@@H](O)[C@H](O)[C@H]2O)[C@@H](O)[C@H](O)[C@H]1O)[C@H]1CC[C@]2(C)[C@@H]1[C@H](O)C[C@@H]1[C@@]3(C)CC[C@H](O[C@@H]4O[C@H](CO)[C@@H](O)[C@H](O)[C@H]4O[C@@H]4O[C@H](CO)[C@@H](O)[C@H](O)[C@H]4O)C(C)(C)[C@@H]3CC[C@]12C` [G-Rb1, ginsenoside Rb1], the “Activity in % (stimulation of elastin secretion vs control)” value in assay [1] (NHF-50 years, product 10 μg/ml + Asc. 25 μM, 48 h) is 21% and 17%; in assay [2] (product 10 μg/ml + Asc. 15 μM) it was 16%; in assay [2] (product 10 μg/ml + Asc. 25 μM), 10%; in assay [2] (setting [3]), 31%. The “ng Elastin/μg prot/48 h” value was 26.3 + 3.7 ng Elastin/μg prot/48 h and 32 + 4.3 ng Elastin/μg prot/48 h and 28 + 2.2 ng Elastin/μg prot/48 h in assay [1] (NHF-50 years, product 10 μg/ml + Asc. 25 μM, 48 h, n=6); 39.3 + 2.8 ng Elastin/μg prot/48 h in assay [2] (product 10 μg/ml + Asc. 15 μM); 38.8 + 6.8 ng Elastin/μg prot/48 h in assay [2] (product 10 μg/ml + Asc. 25 μM); 25.8 ± 2.2 ng Elastin/μg prot/48 h in assay [2] (setting [3]). Besides, in assay [1] (conclusion from Tables 1 to 3 (NHF-47 and NHF-50 years), stimulation augments with concentration), the “synthesis of elastin by the fibroblasts (conclusion in words)” value is recorded as “strongly stimulate the synthesis of elastin”.

The values above are taken from patent US20020015743A1, “USE OF THE RB1, GINSENOSIDE FOR STIMULATING ELASTIN SYNTHESIS” (priority 1997, published 2002).
